Test results as given in ChEMBL document CHEMBL5291721, “A preclinical secondary pharmacology resource illuminates target-adverse drug reaction associations of marketed drugs” (Nat Commun, 2023).

Assays:
[1] = target: Histamine H1 receptor (Homo sapiens, UniProt P35367); assay type: functional, cell-based
[2] = target: T1, Alpha-1A adrenergic receptor (Homo sapiens, UniProt P35348)
T1 sequence (P35348 whole entry): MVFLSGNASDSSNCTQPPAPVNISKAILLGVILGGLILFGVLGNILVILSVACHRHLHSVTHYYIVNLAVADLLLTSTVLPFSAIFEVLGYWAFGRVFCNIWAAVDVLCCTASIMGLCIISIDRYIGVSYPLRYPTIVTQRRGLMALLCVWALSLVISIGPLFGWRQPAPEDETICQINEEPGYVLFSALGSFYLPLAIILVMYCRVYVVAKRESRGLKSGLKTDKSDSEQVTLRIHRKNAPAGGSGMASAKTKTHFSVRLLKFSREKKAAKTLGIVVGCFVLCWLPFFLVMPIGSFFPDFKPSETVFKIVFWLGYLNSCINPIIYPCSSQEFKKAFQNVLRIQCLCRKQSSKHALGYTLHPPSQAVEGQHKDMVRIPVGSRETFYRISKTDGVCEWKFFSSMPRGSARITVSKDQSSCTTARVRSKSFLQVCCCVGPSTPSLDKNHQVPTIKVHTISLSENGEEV

[3] = target: T1, Alpha-1A adrenergic receptor; remark: listed apart in the source
[4] = target: T2, Androgen receptor (Rattus norvegicus, UniProt P15207); assay type: functional
T2 sequence (P15207 whole entry): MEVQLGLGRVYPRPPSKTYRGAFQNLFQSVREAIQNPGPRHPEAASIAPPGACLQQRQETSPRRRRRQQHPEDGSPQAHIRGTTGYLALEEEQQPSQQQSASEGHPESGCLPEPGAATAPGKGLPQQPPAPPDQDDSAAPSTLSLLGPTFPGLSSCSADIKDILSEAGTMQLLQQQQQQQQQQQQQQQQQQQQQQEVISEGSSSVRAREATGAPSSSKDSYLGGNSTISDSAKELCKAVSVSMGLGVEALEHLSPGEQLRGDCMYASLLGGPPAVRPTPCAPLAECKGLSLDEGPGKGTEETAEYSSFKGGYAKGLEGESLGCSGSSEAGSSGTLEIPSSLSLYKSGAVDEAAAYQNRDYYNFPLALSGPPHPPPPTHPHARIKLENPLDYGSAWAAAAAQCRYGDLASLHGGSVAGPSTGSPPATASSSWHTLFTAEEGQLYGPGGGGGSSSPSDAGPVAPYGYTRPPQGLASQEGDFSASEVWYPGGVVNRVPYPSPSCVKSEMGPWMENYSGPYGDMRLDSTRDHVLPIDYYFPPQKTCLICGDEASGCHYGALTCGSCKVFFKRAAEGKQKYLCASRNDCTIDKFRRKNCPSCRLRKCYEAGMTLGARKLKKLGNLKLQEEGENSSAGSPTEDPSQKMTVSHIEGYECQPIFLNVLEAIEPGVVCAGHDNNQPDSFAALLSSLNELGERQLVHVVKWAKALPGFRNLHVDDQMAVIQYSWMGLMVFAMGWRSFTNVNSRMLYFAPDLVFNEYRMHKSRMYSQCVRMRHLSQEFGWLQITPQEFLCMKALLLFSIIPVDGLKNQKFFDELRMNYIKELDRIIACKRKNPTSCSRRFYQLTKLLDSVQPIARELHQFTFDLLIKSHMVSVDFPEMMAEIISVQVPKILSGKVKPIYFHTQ

[5] = target: T3, Estrogen receptor (Homo sapiens, UniProt P03372); assay type: functional
T3 sequence (P03372 whole entry): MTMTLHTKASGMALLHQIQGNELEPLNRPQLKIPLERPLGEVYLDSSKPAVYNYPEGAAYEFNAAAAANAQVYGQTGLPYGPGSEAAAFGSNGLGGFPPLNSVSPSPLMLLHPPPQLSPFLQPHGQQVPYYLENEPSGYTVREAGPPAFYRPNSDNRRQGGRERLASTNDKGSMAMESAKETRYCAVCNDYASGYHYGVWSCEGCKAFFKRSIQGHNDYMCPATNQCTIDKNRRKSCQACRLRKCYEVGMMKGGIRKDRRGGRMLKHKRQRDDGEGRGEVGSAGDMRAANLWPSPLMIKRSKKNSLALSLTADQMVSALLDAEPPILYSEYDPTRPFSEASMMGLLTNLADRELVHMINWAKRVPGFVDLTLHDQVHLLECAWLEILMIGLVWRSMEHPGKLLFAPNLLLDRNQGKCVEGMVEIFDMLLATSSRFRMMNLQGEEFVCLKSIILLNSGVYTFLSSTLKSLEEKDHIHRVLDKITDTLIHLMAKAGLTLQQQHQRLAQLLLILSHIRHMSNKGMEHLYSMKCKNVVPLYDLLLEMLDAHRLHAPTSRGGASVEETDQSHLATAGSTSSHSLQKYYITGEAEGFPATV

[6] = target: 5-hydroxytryptamine receptor 7 (Homo sapiens, UniProt P34969)
[7] = target: T4, Muscarinic acetylcholine receptor M5 (Homo sapiens, UniProt P08912)
T4 sequence (P08912 whole entry): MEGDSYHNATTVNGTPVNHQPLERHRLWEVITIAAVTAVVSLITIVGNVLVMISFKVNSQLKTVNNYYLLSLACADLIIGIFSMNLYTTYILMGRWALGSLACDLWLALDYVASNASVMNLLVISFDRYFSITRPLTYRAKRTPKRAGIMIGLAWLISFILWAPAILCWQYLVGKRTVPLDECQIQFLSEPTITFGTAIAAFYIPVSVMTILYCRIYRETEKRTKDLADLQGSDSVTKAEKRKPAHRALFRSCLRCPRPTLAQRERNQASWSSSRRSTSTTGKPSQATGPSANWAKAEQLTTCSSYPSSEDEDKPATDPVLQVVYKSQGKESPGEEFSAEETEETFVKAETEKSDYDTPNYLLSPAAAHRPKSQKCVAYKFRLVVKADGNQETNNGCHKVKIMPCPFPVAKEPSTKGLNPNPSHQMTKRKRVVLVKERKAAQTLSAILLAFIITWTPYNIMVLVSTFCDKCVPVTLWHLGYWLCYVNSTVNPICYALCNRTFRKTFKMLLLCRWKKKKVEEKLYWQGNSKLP
Also: assay procedure not described here.

Chain of Histamine H1 receptor (P35367 whole entry): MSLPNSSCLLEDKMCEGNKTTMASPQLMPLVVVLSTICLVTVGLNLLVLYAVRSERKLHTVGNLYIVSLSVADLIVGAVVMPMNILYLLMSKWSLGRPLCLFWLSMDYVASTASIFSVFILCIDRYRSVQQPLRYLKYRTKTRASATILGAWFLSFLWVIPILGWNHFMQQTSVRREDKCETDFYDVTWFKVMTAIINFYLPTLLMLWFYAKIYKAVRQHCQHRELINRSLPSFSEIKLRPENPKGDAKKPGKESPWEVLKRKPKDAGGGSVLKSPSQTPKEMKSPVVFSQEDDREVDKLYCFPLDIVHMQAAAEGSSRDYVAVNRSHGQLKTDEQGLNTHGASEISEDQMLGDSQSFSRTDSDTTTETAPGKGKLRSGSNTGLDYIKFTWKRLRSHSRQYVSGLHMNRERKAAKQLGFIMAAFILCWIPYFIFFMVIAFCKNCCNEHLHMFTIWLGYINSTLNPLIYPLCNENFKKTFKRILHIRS
Chain of 5-hydroxytryptamine receptor 7 (P34969 whole entry): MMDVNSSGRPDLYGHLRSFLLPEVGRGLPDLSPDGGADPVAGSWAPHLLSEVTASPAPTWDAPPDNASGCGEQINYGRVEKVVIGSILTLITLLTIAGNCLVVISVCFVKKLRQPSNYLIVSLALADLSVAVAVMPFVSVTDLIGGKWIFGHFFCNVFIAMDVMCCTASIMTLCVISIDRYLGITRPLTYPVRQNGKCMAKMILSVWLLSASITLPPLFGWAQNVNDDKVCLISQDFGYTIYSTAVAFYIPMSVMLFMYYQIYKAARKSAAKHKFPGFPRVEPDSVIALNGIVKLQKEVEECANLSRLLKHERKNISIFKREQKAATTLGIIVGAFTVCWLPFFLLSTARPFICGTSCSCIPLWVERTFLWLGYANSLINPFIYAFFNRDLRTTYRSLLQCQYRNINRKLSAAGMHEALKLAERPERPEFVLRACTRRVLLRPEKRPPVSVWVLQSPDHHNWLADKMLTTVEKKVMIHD

## COc1ccccc1Oc1c(NS(=O)(=O)c2ccc(C(C)(C)C)cc2)nc(-c2ncccn2)nc1OCCO [BOSENTAN]
[1]
  AC50: > 30 µM

## FC(F)(F)c1ccc(CNc2ccc(Cc3c[nH]c4ncc(Cl)cc34)cn2)cn1 [PEXIDARTINIB]
[2]
  AC50: 1.31 µM

## Nc1ccc(S(=O)(=O)Nc2nccs2)cc1 [SULFATHIAZOLE]
[3]
  AC50: > 10 µM

## COc1ccc(CC2c3cc(OC)c(OC)cc3CC[N+]2(C)CCC(=O)OCCCCCOC(=O)CC[N+]2(C)CCc3cc(OC)c(OC)cc3C2Cc2ccc(OC)c(OC)c2)cc1OC (centres undefined)
[4]
  AC50: > 30 µM

## CN1C[C@H](C(=O)N[C@]2(C)O[C@@]3(O)[C@@H]4CCCN4C(=O)[C@H](Cc4ccccc4)N3C2=O)C=C2c3cccc4[nH]cc(c34)C[C@H]21 [ERGOTAMINE]
[5]
  AC50: > 30 µM

## CC(=O)O[C@]1(C(C)=O)CC[C@H]2[C@@H]3C=C(C)C4=CC(=O)CC[C@@H]4[C@H]3CC[C@@]21C [NOMEGESTROL ACETATE]
[4]
  AC50: > 30 µM

## CC(S)C(=O)NCC(=O)O (centres undefined) [TIOPRONIN]
[4]
  AC50: > 30 µM

## CN(CC1(C)CCCO1)S(=O)(=O)c1ccc(Cl)c(S(N)(=O)=O)c1 (centres undefined) [MEFRUSIDE]
[2]
  AC50: > 30 µM

## C[C@@H](NCCCc1cccc(C(F)(F)F)c1)c1cccc2ccccc12
[1]
  AC50: > 30 µM
[4]
  AC50: > 30 µM

## C#C[C@]1(O)CC[C@H]2[C@@H]3CCC4=CC(=O)CC[C@@H]4[C@H]3C(=C)C[C@@]21CC [ETONOGESTREL]
[2]
  AC50: > 30 µM

## CCN1CCN(Cc2ccc(Nc3ncc(F)c(-c4cc(F)c5nc(C)n(C(C)C)c5c4)n3)nc2)CC1 [ABEMACICLIB]
[5]
  AC50: > 30 µM
[4]
  AC50: > 30 µM

## C[C@H]1c2cccc(O)c2C(=O)C2=C(O)[C@]3(O)C(=O)C(C(N)=O)=C(O)[C@@H](N(C)C)[C@@H]3[C@@H](O)[C@@H]21 [DOXYCYCLINE]
[3]
  AC50: > 10 µM

## Cc1onc(-c2ccccc2)c1-c1ccc(S(N)(=O)=O)cc1 [VALDECOXIB]
[6]
  AC50: > 10 µM
[7]
  AC50: > 10 µM
[3]
  AC50: > 10 µM

## OC[C@@H](O)[C@@H](O)[C@H](O)[C@@H](O)CO [SORBITOL]
[2]
  AC50: > 30 µM

## CCN(CC)CCNC(=O)c1c(C)[nH]c(/C=C2\C(=O)Nc3ccc(F)cc32)c1C [SUNITINIB]
[6]
  AC50: > 30 µM
[4]
  AC50: 5.9 µM

## CO[C@H]1/C=C/O[C@@]2(C)Oc3c(C)c(O)c4c(O)c(c(/C=N/N5CCN(C)CC5)c(O)c4c3C2=O)NC(=O)/C(C)=C\C=C\[C@H](C)[C@H](O)[C@@H](C)[C@@H](O)[C@@H](C)[C@H](OC(C)=O)[C@@H]1C [RIFAMPIN]
[6]
  AC50: > 10 µM
[3]
  AC50: > 10 µM

## CCCN(CCC)C(=O)Cc1c(-c2ccc(Cl)cc2)nc2ccc(Cl)cn12 [ALPIDEM]
[6]
  AC50: > 10 µM
[7]
  AC50: > 10 µM
[3]
  AC50: > 10 µM

## COc1cc2nccc(Oc3ccc(NC(=O)C4(C(=O)Nc5ccc(F)cc5)CC4)cc3)c2cc1OC [CABOZANTINIB]
[5]
  AC50: > 30 µM
[4]
  AC50: > 30 µM

## CCCC(CCC)C(=O)O [VALPROIC ACID]
[6]
  AC50: > 10 µM
[7]
  AC50: > 10 µM

## C[C@H](CCC(=O)O)[C@H]1CC[C@H]2[C@@H]3[C@@H](O)C[C@@H]4C[C@H](O)CC[C@]4(C)[C@H]3CC[C@]12C [URSODIOL]
[5]
  AC50: > 30 µM

## CC[C@@]1(O)C(=O)OCc2c1cc1n(c2=O)Cc2cc3c([N+](=O)[O-])cccc3nc2-1 [RUBITECAN]
[2]
  AC50: > 30 µM

## CC(C)(O)CNc1nc(Nc2ccnc(C(F)(F)F)c2)nc(-c2cccc(C(F)(F)F)n2)n1 [ENASIDENIB]
[2]
  AC50: > 30 µM

## CN1C(C(=O)Nc2ccccn2)=C(O)c2ccccc2S1(=O)=O [PIROXICAM]
[2]
  AC50: > 30 µM

## CN(C)CCc1c[nH]c2ccc(Cn3cncn3)cc12 [RIZATRIPTAN]
[6]
  AC50: > 10 µM
[1]
  AC50: 20 µM
[7]
  AC50: > 10 µM
[3]
  AC50: > 10 µM

## O=C(O)CO [GLYCOLIC ACID]
[2]
  AC50: > 30 µM

## COc1ccccc1OCCNCC(O)COc1cccc2[nH]c3ccccc3c12 (centres undefined) [CARVEDILOL]
[6]
  AC50: 1.58 µM
[7]
  AC50: > 10 µM
[4]
  AC50: > 30 µM
[3]
  AC50: 0.0099 µM

## C[C@@H](Oc1cc(-c2cnn(C3CCNCC3)c2)cnc1N)c1c(Cl)ccc(F)c1Cl [CRIZOTINIB]
[5]
  AC50: > 30 µM
[4]
  AC50: > 30 µM

## CC(C)Cc1ccc(C(C)C(=O)O)cc1 (centres undefined) [IBUPROFEN]
[6]
  AC50: > 10 µM
[7]
  AC50: > 10 µM
[3]
  AC50: > 10 µM

## OC[C@H]1O[C@@](CO)(O[C@H]2O[C@H](CO)[C@@H](O)[C@H](O)[C@H]2O)[C@@H](O)[C@@H]1O [SUCROSE]
[1]
  AC50: > 30 µM
[2]
  AC50: > 30 µM

## CC(C)c1nc(N(C)S(C)(=O)=O)nc(-c2ccc(F)cc2)c1/C=C/[C@@H](O)C[C@@H](O)CC(=O)O [ROSUVASTATIN]
[5]
  AC50: > 30 µM
[1]
  AC50: > 30 µM

## C=C[C@H]1C[N@@]2CC[C@H]1C[C@@H]2[C@@H](O)c1ccnc2ccc(OC)cc12 [QUINIDINE]
[1]
  AC50: > 30 µM

## CC(C)N(CCC(C(N)=O)(c1ccccc1)c1ccccn1)C(C)C (centres undefined) [DISOPYRAMIDE]
[1]
  AC50: > 30 µM

## N[C@@H](CC(=O)N1CCn2c(nnc2C(F)(F)F)C1)Cc1cc(F)c(F)cc1F [SITAGLIPTIN]
[5]
  AC50: > 30 µM
[6]
  AC50: > 10 µM
[7]
  AC50: > 10 µM
[4]
  AC50: > 30 µM
[3]
  AC50: > 10 µM

## CCOC(=O)c1c(C)cc2c(CO)n[nH]c(=O)c2c1C [OXAGRELATE]
[2]
  AC50: > 30 µM

## C=CC[C@@H]1/C=C(\C)C[C@H](C)C[C@H](OC)[C@H]2O[C@@](O)(C(=O)C(=O)N3CCCC[C@H]3C(=O)O[C@H](/C(C)=C/[C@@H]3CC[C@@H](O)[C@H](OC)C3)[C@H](C)[C@@H](O)CC1=O)[C@H](C)C[C@@H]2OC [TACROLIMUS ANHYDROUS]
[5]
  AC50: > 30 µM
[6]
  AC50: > 10 µM
[7]
  AC50: > 10 µM
[4]
  AC50: > 30 µM
[3]
  AC50: > 10 µM
